Laboratory results published in patent US9758541B2 (priority 2013, dated 2017).

Test system: PC3 cells (non-hormone-dependent prostate cancer cells)
Conditions: read-out: IC50 (μM) of P53, Table 2, 72 h exposure, MTS

For “2-ferrocenyl-1,1-bis-(4-hydroxyphenyl)-5-hydroxy-pent-1-ene [P53]”, the IC50 was 4.43 µM.

Test system: Mia-PaCa cells (pancreatic cancer cells)
Conditions: read-out: IC50 (μM) of P53, Table 2, 72 h exposure, MTS

Substance “2-ferrocenyl-1,1-bis-(4-hydroxyphenyl)-5-hydroxy-pent-1-ene [P53]” has an IC50 of 1.23 µM.

Test system: MDA-MB-231 cells (non-hormone-dependent breast cancer cells)
Assay type: cell-based
Conditions: not given

Point of comparison: “2-ferrocenyl-1,1-bis-(4-hydroxyphenyl)-5-dimethylamino-pent-1-ene [P697]”, IC50 2.53 µM. Against it:
- 2,3-Dihydro-3-methoxy-2-[5-ferrocenyl-6,6-bis-(4-hydroxyphenyl)-hex-5-enyl]-1H-isoindol-1-one [P727] — 1.6-fold lower, 1.63 µM
- 2-ferrocenyl-1-(4-hydroxyphenyl)-5-hydroxy-1-phenyl-pent-1-ene [P681] — 2.1-fold lower, 1.22 µM
- 2,3-Dihydro-3-hydroxy-2-[4-ferrocenyl-5,5-bis-(4-hydroxyphenyl)-pent-4-enyl]-1H-isoindol-1-one [P710] — 4.3-fold lower, 0.59 µM
- N-{5-ferrocenyl-6,6-bis-(4-hydroxyphenyl)-hex-5-enyl}phthalimide [P720] — 7.7-fold lower, 0.33 µM
- N-{4-ferrocenyl-5,5-bis-(4-hydroxyphenyl)-pent-4-enyl}phthalimide [P686] — 13-fold lower, 0.2 µM
- Ethyl 3-ene-3-ferrocenyl-4,4-bis-(4-hydroxyphenyl)-butanoate [P64] — 2.2-fold lower, 1.16 µM
- Methyl 6-ene-6-ferrocenyl-7,7-bis-(4-hydroxyphenyl)-heptanoate [P504] — 4.1-fold lower, 0.62 µM
- 1,1-bis-(4-hydroxyphenyl)-5-hydroxy-2-ruthenocenyl-pent-1-en [W3] — 4.9-fold higher, 12.5 µM
